Experimental data reported in paper PMC5578999, “Novel quinolone chalcones targeting colchicine-binding pocket kill multidrug-resistant cancer cells by inhibiting tubulin activity and MRP1 function” (Scientific Reports, 2017).

Assays:
MDR1 = assay: Rh123 dye efflux assay, KB-C-2 cells; format: cell-based; conditions: MDR1, KB-C-2 cells; 22 µmol/L of drug; DMSO control 58.0%
Experimental: (§1) Rhodamine123 (Rh123) drug efflux was carried out using a Multidrug-Resistance Direct Dye Efflux Activity Kit (Millipore, Darmstadt, Germany), with some modifications. […] Reading was carried out with a Beckman Coulter FC500 flow cytometer.

[1] = biological target: tubulin, colchicine-binding pocket; assay: Competitive colchicine-tubulin binding assay (modified Dixon plot); conditions: competitive with colchicine
Experimental: To determine the mode of binding, a competitive binding assay was carried out as described previously. Briefly, tubulin (0.4 μmol/L) was incubated with different concentrations of CTR for 1 hour at 37 °C. Subsequently, colchicine was added to the reaction mixture containing CTR-tubulin complexes. […] Fluorescence was monitored using an automated plate reader (Synergy H4 Hybrid Multi-Mode Micro plate Reader) with an excitation wavelength at 360 nm and emission at 430 nm. […] The experiment was repeated four times.

MCF 10AT1 = assay: SRB cell survival, MCF 10A isogenic lines; format: cell-based; conditions: 0.39 μmol/L; MCF 10AT1 (premalignant)
Experimental: (§2) and MCF10AT1 cells were cultured in Dulbecco's Modified Eagle's Medium/Ham's Nutrient Mixture F-12 (DME/F12) supplemented with 10% (volume/volume) FBS , 100 μg/ml streptom ycin and 100 units/ml penicillin, antim ycotic solution, 0.5 μg/ml hydrocortisone, 10 ng/ml human epiderm al growth factor (hEGF) and 5 μg/ml insulin, whereas MCF10CA1a cell line was cultured in DM EM supplemented with 10% FBS (volume/volume). KB-3- 1, parental human epidermoid carcinoma cell line and KB-C2, an isogenic MDR1- overexpressing drug-resistant cell line, were kindl y provided b y Dr. Amit K Tiwari, the Universit y of Toledo, OH.
(§3) Parental HEK293 and M RP1- overexpressing HEK293- MRP1 isogenic cel ls were kind gifts of Dr. Susan Cole (Queen’s Universit y, Kingston, Ontario, Canada). The pacl itaxel-resistant MDA-MB-231TaxR cell line was generated in house b y culturing MDA-MB-231 cells (purchased from ATCC and authen ticated ) in the gradual l y incr easi ng con centr ations of pacl itax el until the concentration reached to 100 nM. Cell line authentication was carried out by Genetica DNA Laboratories (Burlington, NC) using a short tandem repeat (STR) profiling method (March 2015; […]
(§4) Cell viability, com binational i ndex and cell synchronization
(§5) Cell viability and proliferation were ex amined using a s ulforhodamine B (SRB) assa y as described previousl y (Hu et al., 2008). IC 50 values were calculat ed from si gmoidal dose-response cu rves gen erat ed b y at least two indepen dent ex periments , with each quadruplicate samples, using GraphPad Prism v.5.04 software (GraphPad Software, Inc, La J olla, CA). For combinational experiments on the KB -C-2 cells, CTR compounds and pacli taxel or ABT - 737/ABT-199 w ere us ed at or below IC 50 . The combinational index (CI) w as calculat ed as previousl y described (Chou, 2006). […]
(§6) Cell cycl e pro gr ession in the absence (sham) o r pr esence o f compound(s ) was determined with a Beckman Coulter Epics Elite FC 500 Flow C ytom eter as described previousl y (Romero

MCF 10A = assay: SRB cell survival, MCF 10A isogenic lines; format: cell-based; conditions: 0.39 μmol/L; MCF 10A (non-cancer)
Experimental: as §2, §3, §4, §5, §6

MCF 10CA1a = assay: SRB cell survival, MCF 10A isogenic lines; format: cell-based; conditions: 0.39 μmol/L; MCF 10AC1a (fully malignant)
Experimental: as §2, §3, §4, §5, §6

MRP1 [2] = biological target: T1, MRP1 (Homo sapiens, UniProt P33527); assay: Rh123 dye efflux assay, HEK293-MRP1 cells; format: cell-based; conditions: 22 µmol/L of drug, DMSO control 39.6%
T1 construct: expressed in transfected cells; host or cells: HEK293-MRP1 (gift of Dr. Susan Cole)
T1 sequence (P33527 whole entry): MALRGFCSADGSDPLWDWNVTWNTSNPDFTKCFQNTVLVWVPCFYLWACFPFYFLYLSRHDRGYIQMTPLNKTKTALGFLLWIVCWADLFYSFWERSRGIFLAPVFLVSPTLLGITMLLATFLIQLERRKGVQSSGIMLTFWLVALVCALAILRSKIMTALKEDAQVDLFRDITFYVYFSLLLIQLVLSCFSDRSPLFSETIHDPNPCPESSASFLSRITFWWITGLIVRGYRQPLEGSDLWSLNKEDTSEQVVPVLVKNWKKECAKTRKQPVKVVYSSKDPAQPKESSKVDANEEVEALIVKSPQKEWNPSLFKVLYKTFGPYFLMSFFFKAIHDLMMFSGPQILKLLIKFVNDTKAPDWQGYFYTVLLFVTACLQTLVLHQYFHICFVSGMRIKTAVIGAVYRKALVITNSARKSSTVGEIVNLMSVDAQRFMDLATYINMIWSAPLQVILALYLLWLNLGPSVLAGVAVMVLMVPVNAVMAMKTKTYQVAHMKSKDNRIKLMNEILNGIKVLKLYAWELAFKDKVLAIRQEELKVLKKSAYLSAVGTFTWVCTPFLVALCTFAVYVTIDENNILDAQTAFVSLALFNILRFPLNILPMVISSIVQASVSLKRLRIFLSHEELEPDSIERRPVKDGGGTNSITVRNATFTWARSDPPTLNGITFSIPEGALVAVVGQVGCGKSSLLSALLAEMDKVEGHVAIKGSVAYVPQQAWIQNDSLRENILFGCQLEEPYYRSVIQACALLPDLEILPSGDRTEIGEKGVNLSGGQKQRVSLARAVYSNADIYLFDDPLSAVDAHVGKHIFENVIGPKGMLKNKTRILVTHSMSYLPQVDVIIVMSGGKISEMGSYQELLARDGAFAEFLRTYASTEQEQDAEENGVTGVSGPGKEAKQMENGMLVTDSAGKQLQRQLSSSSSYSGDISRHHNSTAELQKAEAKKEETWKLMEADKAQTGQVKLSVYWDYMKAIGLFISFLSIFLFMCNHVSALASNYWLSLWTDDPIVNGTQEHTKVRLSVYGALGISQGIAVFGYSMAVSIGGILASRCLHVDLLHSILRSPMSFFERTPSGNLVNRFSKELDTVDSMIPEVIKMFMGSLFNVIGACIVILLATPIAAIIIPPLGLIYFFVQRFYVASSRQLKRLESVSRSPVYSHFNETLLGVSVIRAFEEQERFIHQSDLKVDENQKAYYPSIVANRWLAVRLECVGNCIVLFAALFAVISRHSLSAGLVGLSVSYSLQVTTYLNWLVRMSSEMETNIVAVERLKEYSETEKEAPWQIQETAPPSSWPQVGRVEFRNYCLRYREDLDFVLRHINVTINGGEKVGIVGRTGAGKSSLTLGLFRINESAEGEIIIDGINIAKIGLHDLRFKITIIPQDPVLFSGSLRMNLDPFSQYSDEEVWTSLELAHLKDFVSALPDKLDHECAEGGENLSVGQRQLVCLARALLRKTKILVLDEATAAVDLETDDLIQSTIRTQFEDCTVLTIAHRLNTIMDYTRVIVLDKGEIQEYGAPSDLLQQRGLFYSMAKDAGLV
Experimental: as §1

MRP1 [3] = biological target: T1, MRP1; assay: Calcein-AM retention assay, HEK293-MRP1 cells; format: cell-based; conditions: 22 µmol/L, DMSO control 52%
NCI-H460 = assay: NCI-60 SRB screen; format: cell-based
NCI-H522 = assay: NCI-60 SRB screen; format: cell-based
NCI/ADR-RES = assay: NCI-60 SRB screen; format: cell-based
[4] = Homo sapiens, read-out: LC50 (the source's name)

## COc1ccc2[nH]c(=O)c(/C=C/C(=O)c3ccccc3OC)cc2c1 [CTR-20, (E)-6-Methoxy-3-(3-(2-methoxyphenyl)-3-oxoprop-1-enyl) quinolin-2(1H)-one]
MDR1
  Rh123 retention: 57.9%
[1]
  binding to the colchicine-binding pocket by Ki values, relative to CTR-17: approximately five times more strongly
MCF 10AT1
  cell survival rate: 20%
MCF 10A
  cell survival rate: 75%
MCF 10CA1a
  cell survival rate: 10%
MRP1 [2]
  Rh123 retention: 81.7%
MRP1 [3]
  calcein-AM retained in the cells: 72%
NCI-H460
  Log10GI50: -6.42 Molar
  Log10LC50: -4.44 Molar
  Log10TGI: -5.65 Molar
  TGI: 2.25E-6 Molar
NCI-H460; 1.00E-5 Molar
  Growth Percent: 1.79%
NCI-H460; Homo sapiens
  GI50: 0.38 µM
NCI-H460; [4]
  CC50: 36.7 µM
NCI-H460; Log10 Concentration -4.0
  Percent Growth: -71%
NCI-H460; Log10 Concentration -5.0
  Percent Growth: -22%
NCI-H460; Log10 Concentration -6.0
  Percent Growth: 12%
NCI-H460; Log10 Concentration -7.0
  Percent Growth: 102%
NCI-H460; Log10 Concentration -8.0
  Percent Growth: 105%
NCI-H522
  Log10GI50: -6.45 Molar
  Log10LC50: -4.89 Molar
  Log10TGI: -5.69 Molar
  TGI: 2.06E-6 Molar
NCI-H522; 1.00E-5 Molar
  Growth Percent: 3.93%
NCI-H522; Homo sapiens
  GI50: 0.352 µM
  LC50 (concentration causing 50% net cell kill): 12.9 µM
NCI-H522; Log10 Concentration -4.0
  Percent Growth: -88%
NCI-H522; Log10 Concentration -5.0
  Percent Growth: -45%
NCI-H522; Log10 Concentration -6.0
  Percent Growth: 21%
NCI-H522; Log10 Concentration -7.0
  Percent Growth: 85%
NCI-H522; Log10 Concentration -8.0
  Percent Growth: 87%
NCI/ADR-RES
  Log10GI50: -6.56 Molar
  Log10LC50: > -4.00 Molar
  Log10TGI: -4.70 Molar
  TGI: 2.00E-5 Molar
NCI/ADR-RES; 1.00E-5 Molar
  Growth Percent: 10.36%
NCI/ADR-RES; Homo sapiens
  GI50: 0.273 µM
NCI/ADR-RES; [4]
  CC50: > 100 µM
NCI/ADR-RES; Log10 Concentration -4.0
  Percent Growth: -8%
NCI/ADR-RES; Log10 Concentration -5.0
  Percent Growth: 3%
NCI/ADR-RES; Log10 Concentration -6.0
  Percent Growth: 14%
NCI/ADR-RES; Log10 Concentration -7.0
  Percent Growth: 78%
NCI/ADR-RES; Log10 Concentration -8.0
  Percent Growth: 97%
